Values after ≈ are worked out from the molar mass of the structure shown. “Also recorded” adds a separate entry of the source.
Assays:
[1] = system: S. simulans (ATCC 11631); test: Kirby-Bauer agar disk diffusion; type: cell-based, Staphylococcus simulans; settings: Table 1; 6-mm disks, 20 μg test compound, 24 h, triplicate
Summary of the method: (§1)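 Agar disk diffusion used 6-mm air-dried disks carrying 20 μg of compound. Values are mean diameters (mm) of the growth-inhibition zone at 24 h, from triplicate experiments. S. epidermidis and S. simulans were clinical isolates.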

[2] = system: N. gonorrhoeae; test: Kirby-Bauer agar disk diffusion; type: cell-based, Neisseria gonorrhoeae; settings: Table 1; 6-mm disks, 20 μg test compound, 24 h, triplicate; β-lactamase positive
Method: In this study, a selection of N-methylthio-substituted β-lactams are examined for antimicrobial activity by the Kirby-Bauer disk diffusion method on agar plates. A variety of common Gram-positive and Gram-negative bacteria are tested, including clinical isolates of methicillin-resistant Staphylococcus aureus (MRSA).
Compound susceptibility measurements are obtained from agar disk diffusion experiments using 6-mm air-dried disks impregnated with 20 μg of the test compound. The values correspond to the average diameters in mm (triplicate experiments) for the zone of growth inhibition observed after 24 h. Staphylococcus aureus (ATCC 25923) and β-lactamase-producing strains of methicillin-resistant Staphylococcus aureus (labeled as MRSA USF652-659) are obtained from Lakeland Regional Medical Center, Lakeland, Fla. Staphylococcus epidermidis, Staphylococcus simulans, Staphylococcus simulans, and Microcossus luteus are clinical isolates from University of South Florida Medical Clinic. Nieserria gonnorhoeae (β-lactamase positive) is obtained from the Tampa Branch State Laboratory. PenG is penicillin G (potassium salt). Table 1 provides the zones of growth inhibition that are observed after 24 hours using the lactams of FIGS. 1A-1I (designated A-I, respectively).

[3] = system: bacterial uptake of ^3H-uridine and ^3H-leucine; test: pulse radiolabeling experiments; type: cell-based; settings: at low (MIC) levels
Source text: (§2) In fact, only small isolated colonies of surviving cells can be found, all of which appear perfectly normal in size, shape, smoothness, and clustering behavior. […] Pulse radiolabeling experiments indicate that the lactam of FIG. 1D blocks the bacterial uptake of ^3H-uridine and ^3H-leucine at low (MIC) levels (Lim, D. V. et al. Microbiology, 1977, 33:328; Champney, W. S. and C. G. Tober Antimicrob. Agents and Chemother., 2000, 44:1413).

[4] = system: cultures of S. aureus and MRSA; test: electron microscopy of cell morphology; type: cell-based, Staphylococcus aureus; settings: Example 1; electron microscopy, high magnification; listed as FIG. 1D
Source text: The structure-bioactivity patterns observed for these N-thiolated lactams are highly atypical for a β-lactam antibiotic. The compounds are lipohilic and devoid of the typical acidic ring functionality required for recognition by the penicillin binding proteins. The implication that the lactams set forth in FIGS. 1A-1I are not acting in the same manner or on the same enzymes as the traditional β-lactam drugs is supported by electron microscopy experiments, which confirm that cell morphology is unaffected by the lactam of FIG. 1D (Greenwood, D. et al. Science, 1969, 163:1076).
as §2
Light microscopy and scanning electron microscopy experiments have enabled us to look for cell wall damage in cultures of S. aureus and MRSA grown in the presence of N-methylthio lactam (FIG. 11F) over a range of different concentrations and cell growth conditions. […] Those cells that survive the treatment appear normal (coccal) and fully mature.

[5] = system: Micrococcus luteus; test: Kirby-Bauer agar disk diffusion; type: cell-based; settings: Table 1; 6-mm disks, 20 μg test compound, 24 h, triplicate
Summary of the method: as §1

[6] = system: Staphylococcus aureus (ATCC 25923); test: Kirby-Bauer agar disk diffusion; type: cell-based; settings: Table 1; 6-mm disks, 20 μg test compound, 24 h, triplicate
Summary of the method: as §1

[7] = system: Staphylococcus epidermidis; test: Kirby-Bauer agar disk diffusion; type: cell-based; settings: Table 1; 6-mm disks, 20 μg test compound, 24 h, triplicate
Summary of the method: as §1

[8] = system: S. saprophyticus (ATCC 3552); test: Kirby-Bauer agar disk diffusion; type: cell-based, Staphylococcus saprophyticus; settings: Table 1; 6-mm disks, 20 μg test compound, 24 h, triplicate
Summary of the method: as §1

[9] = system: Staphylococcus aureus; test: MIC by agar dilution; type: cell-based
Source text: (§3) However, the N-alkylthio substituent is required, since reduction to the N—H analogue completely destroys the biological activity.

[10] = system: MRSA strains; test: MIC by agar dilution; type: cell-based, Staphylococcus aureus
Source text: as §3

[11] = system: MRSA cells; test: light microscopy after Gram staining; type: cell-based, Staphylococcus aureus; settings: Example 1
Source text: as §2
(FIGS. 14A-14C) S. aureus is a Gram-positive microorganism, and thus reacts with Gram stain to produce a purple coloration due to binding of the stain to the peptidoglycan. 100% of MRSA cells grown either in the absence or presence of the lactam of FIG. 11F take on a purple color when Gram stained (top and center images, next page). In contrast, for MRSA cells treated with penicillin G or vancomycin (cell wall synthesis inhibitors), only about 30% of the cells are Gram-stained purple, with the remainder of the cells appearing pink (bottom image, next page) due to morphologically altered walls. This is strong evidence that the N-methylthio lactams are not affecting late stage events in cell wall biosynthesis.

[12] = system: MRSA USF659; test: Kirby-Bauer agar disk diffusion; type: cell-based, Staphylococcus aureus; settings: Table 1; 6-mm disks, 20 μg test compound, 24 h, triplicate
Summary of the method: (§4)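 Kirby-Bauer disk diffusion on agar with 6-mm air-dried disks carrying 20 μg compound against β-lactamase-producing MRSA clinical isolates. Values are mean inhibition-zone diameters (mm, triplicate) read after 24 h.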

[13] = system: MRSA USF654; test: Kirby-Bauer agar disk diffusion; type: cell-based, Staphylococcus aureus; settings: Table 1; 6-mm disks, 20 μg test compound, 24 h, triplicate
Summary of the method: as §4

[14] = system: MRSA USF653; test: Kirby-Bauer agar disk diffusion; type: cell-based, Staphylococcus aureus; settings: Table 1; 6-mm disks, 20 μg test compound, 24 h, triplicate
Summary of the method: as §4

[15] = system: MRSA USF655; test: Kirby-Bauer agar disk diffusion; type: cell-based, Staphylococcus aureus; settings: Table 1; 6-mm disks, 20 μg test compound, 24 h, triplicate
Summary of the method: as §4

[16] = system: MRSA USF656; test: Kirby-Bauer agar disk diffusion; type: cell-based, Staphylococcus aureus; settings: Table 1; 6-mm disks, 20 μg test compound, 24 h, triplicate
Summary of the method: as §4

[17] = system: MRSA USF657; test: Kirby-Bauer agar disk diffusion; type: cell-based, Staphylococcus aureus; settings: Table 1; 6-mm disks, 20 μg test compound, 24 h, triplicate
Summary of the method: as §4

[18] = system: MRSA USF652; test: Kirby-Bauer agar disk diffusion; type: cell-based, Staphylococcus aureus; settings: Table 1; 6-mm disks, 20 μg test compound, 24 h, triplicate
Summary of the method: as §4

[19] = system: MRSA USF658; test: Kirby-Bauer agar disk diffusion; type: cell-based, Staphylococcus aureus; settings: Table 1; 6-mm disks, 20 μg test compound, 24 h, triplicate
Summary of the method: as §4

With `COC1C(=O)N(SC)C1c1ccccc1Cl` (racemic) [Lactam D] the “zone of growth inhibition, average diameter” value (shortened to “zone of growth inhibition”) [1] was 16 mm, the “zone of growth inhibition” value [2] was 19 mm and the “bacterial uptake of ^3H-leucine” value [3] was “blocks”. The “bacterial uptake of ^3H-uridine” value [3] was “blocks”, the cell morphology [4] was “unaffected; also recorded: no visible damage or morphological deformities” and the “zone of growth inhibition” value [5] was 24 mm. For the same molecule, the “zone of growth inhibition” value [6] was 26 mm, the “zone of growth inhibition” value [7] was 29 mm and the “zone of growth inhibition” value [8] was 20 mm. The “Minimum inhibitory concentration (MIC)” value [9] was 15 µg/mL (≈ 58.2 µM), the “Minimum inhibitory concentration (MIC)” value [10] was 5 to 10 µg/mL and the “coloration upon Gram staining” value [11] was “uniform purple coloration”. For the same molecule, the “zone of growth inhibition” value [12] was 24 mm, the “zone of growth inhibition” value [13] was 26 mm and the “zone of growth inhibition” value [14] was 30 mm. For the same molecule, the “zone of growth inhibition” value [15] was 26 mm, the “zone of growth inhibition” value [16] was 28 mm and the “zone of growth inhibition” value [17] was 28 mm. The “zone of growth inhibition” value [18] was 30 mm and the “zone of growth inhibition” value [19] was 27 mm.

Reference: patent US6946458B2, “N-thiolated beta-lactams: novel antibacterial agents for methicillin-resistant Staphylococcus aureus” (University of South Florida, priority 1999, dated 2005)
